{"source": "patent US20250319063A1", "about": "“METHODS AND COMPOUNDS FOR RESTORING MUTANT P53 FUNCTION” (PMV PHARMACEUTICALS, INC., priority 2022, published 2025)", "key": {"[1]": {"experiment": "Single oral dose plasma pharmacokinetics in fasted and fed healthy subjects (food effect, ethnicity)", "type": "in vivo, human", "details": "for AUC(0-t) / AUC(0-inf) / Cmax / Tmax / Vd/F / half-life: both sexes, human, plasma, po; for Vd/F: read-out: Vz/F, GeoMean; for half-life: read-out: t½, GeoMean (converted)", "experimental": "Compound 1 pharmacokinetics were analyzed in healthy subjects administered Compound 1 in a fasted state. A subject was considered fasted if the subject fasted overnight for at least 10 hours and water was permitted ad libitum except for 1 hour before and after drug administration. For fasted subjects, Compound 1 was administered with at least 8 ounces (240 mL) of water. Compound 1 pharmacokinetics were also analyzed in healthy subjects administered Compound 1 in a fed state. A subject was considered fed after consuming a high-fat meal 30 minutes prior to drug administration, and the meal was finished at least 5 minutes prior to drug administration. For both fasted and fed subjects, no food was permitted for at least 4 hours post-dose and water was permitted starting at 1 hour post-dose.\nSubjects were healthy, non-smoking male and female Caucasian/non-Asian or Japanese participants 18 to 55 years of age with a BMI between […].\nIn Part 1 of the study, analysis was performed to compare 1000 mg Compound 1 in fed and fasted states. A dose of 1000 mg of Compound 1 consisted of two 500 mg tablets administered as a single oral dose. The analysis of Part 1 was performed at two separate time points in two different schemes (1A and 1B).\nIn scheme 1A, at period 1, Compound 1 analyzed in healthy subjects administered 1000 mg Compound 1 (n=3) in a fed state. Following a washout period of 7-9 days, these subjects were then administered 1000 mg Compound 1 in a fasted state.\nSeparately, in scheme 1B, at period 1, Compound 1 was analyzed in healthy subjects administered 1000 mg Compound 1 (n=3) in a fasted state. Following a washout period of 7-9 days, these subjects were then administered 1000 mg Compound 1 in a fed state.\nIn Part 2 of the study, analysis was performed to compare 2000 mg Compound 1 in fed and fasted states and also to compared ethnicity of Caucasian/non-Asian subjects and Japanese subjects. A dose of 2000 mg of Compound 1 consisted of four 500 mg tablets administered as a single oral dose.\nFor Caucasian/non-Asian subjects (n=20) the analysis was performed at two separate time points in two different schemes (2A and 2B). During scheme 2A, at period 1, Compound 1 was analyzed in subjects administered 2000 mg Compound 1 (n=10) in a fed state. Following a washout period of 7-9 days, at period 2, these subjects were then administered 2000 mg Compound 1 in a fasted state. Separately in scheme 2B, at period 1, Compound 1 was analyzed in subjects administered 2000 mg Compound 1 (n=10) in a fasted state. Following a washout period of 7-9 days, at period 2, these subjects were then administered 2000 mg Compound 1 in a fed state.\nFor Japanese subjects (n=6), Compound 1 pharmacokinetics were analyzed in subjects administered 2000 mg Compound 1 in a fasted state.\nBlood for the analysis of study drug (Compound 1) and metabolite (M1) were collected.\nVarious pharmacokinetic (PK) parameters were determined for each subject. (Tables 9-12 and FIGS. 23-28).\nStatistical analysis of Compound 1 plasma PK parameters were evaluated for food effects for Part 1 (Table 11) and Part 2 (Table 12). The log-transformed PK parameters were analyzed using an analysis of variance model with treatment (fed/fasted condition) and period as fixed effects and participant as a random effect."}, "[2]": {"details": "1000 mg, 1000 mg oral, Fed (Part 1)"}, "[3]": {"details": "2000 mg, 2000 mg oral, Fasted, Caucasian/Non-Asian"}, "[4]": {"details": "2000 mg, 2000 mg oral, Fasted, Japanese"}, "[5]": {"details": "2000 mg, 2000 mg oral, Fed, Caucasian/Non-Asian"}}, "note": "“Also recorded” adds a separate entry of the source. Read-outs that look alike come from different tables or passages of the source.", "data": [{"smiles": "CNC(=O)c1ccc(NCC#Cc2cc3c(N[C@@H]4CCN(C)C[C@@H]4F)cccc3n2CC(F)(F)F)c(OC)c1", "note": "[Compound 1, 4-((3-(4-(((3S,4R)-3-fluoro-1-methylpiperidin-4-yl)amino)-1-(2,2,2-trifluoroethyl)-1H-indol-2-yl)prop-2-yn-1-yl)amino)-3-methoxy-N-methylbenzamide]", "values": [{"measurement": "AUC(0-t)", "setting": "[1]; 1000 mg, 1000 mg oral, Fed (Part 1), read-out: AUC0-96, GeoMean", "value": 177, "unit": "µg·h/mL"}, {"measurement": "AUC(0-inf)", "setting": "[1]; 1000 mg, 1000 mg oral, Fed (Part 1), read-out: AUC0-inf, GeoMean", "value": 180, "unit": "µg·h/mL"}, {"measurement": "AUC(0-inf)", "setting": "[1]; 1000 mg, 1000 mg oral, Fed (Part 1), read-out: AUC0-inf, Geometric Mean (analysis of variance model)", "value": 180, "unit": "µg·h/mL"}, {"measurement": "AUC(0-t)", "setting": "[1]; 1000 mg, 1000 mg oral, Fed (Part 1), read-out: AUC0-last, GeoMean", "value": 177, "unit": "µg·h/mL"}, {"measurement": "AUC(0-t)", "setting": "[1]; 1000 mg, 1000 mg oral, Fed (Part 1), read-out: AUC0-last, Geometric Mean (analysis of variance model)", "value": 177, "unit": "µg·h/mL"}, {"measurement": "Cmax", "setting": "[1]; 1000 mg, 1000 mg oral, Fed (Part 1), read-out: Cmax, GeoMean", "value": 10600, "unit": "ng/mL"}, {"measurement": "Cmax", "setting": "[1]; 1000 mg, 1000 mg oral, Fed (Part 1), read-out: Cmax, Geometric Mean (analysis of variance model)", "value": 10600, "unit": "ng/mL"}, {"measurement": "Tmax", "setting": "[1]; 1000 mg, 1000 mg oral, Fed (Part 1), read-out: Tmax, Median", "value": 3.25, "unit": "h"}, {"measurement": "Tmax", "setting": "[1]; 1000 mg, 1000 mg oral, Fed (Part 1), read-out: Tmax, Minimum, Maximum", "value": "1.51 to 5.01", "unit": "h"}, {"measurement": "Vd/F", "setting": "[1]; [2]", "value": 127, "unit": "L"}, {"measurement": "half-life", "setting": "[1]; [2]", "value": 15.8, "unit": "h"}, {"measurement": "AUC(0-inf)", "setting": "[1]; 2000 mg, 2000 mg oral, Fasted (Part 2), read-out: AUC0-inf, Geometric Mean (analysis of variance model)", "value": 260, "unit": "µg·h/mL"}, {"measurement": "AUC(0-t)", "setting": "[1]; 2000 mg, 2000 mg oral, Fasted (Part 2), read-out: AUC0-last, Geometric Mean (analysis of variance model)", "value": 259, "unit": "µg·h/mL"}, {"measurement": "Cmax", "setting": "[1]; 2000 mg, 2000 mg oral, Fasted (Part 2), read-out: Cmax, Geometric Mean (analysis of variance model)", "value": 10400, "unit": "ng/mL"}, {"measurement": "AUC(0-t)", "setting": "[1]; 2000 mg, 2000 mg oral, Fasted, Caucasian/Non-Asian, read-out: AUC0-24, GeoMean", "value": 138, "unit": "µg·h/mL"}, {"measurement": "AUC(0-t)", "setting": "[1]; 2000 mg, 2000 mg oral, Fasted, Caucasian/Non-Asian, read-out: AUC0-96, GeoMean", "value": 255, "unit": "µg·h/mL"}, {"measurement": "AUC(0-inf)", "setting": "[1]; 2000 mg, 2000 mg oral, Fasted, Caucasian/Non-Asian, read-out: AUC0-inf, GeoMean", "value": 259, "unit": "µg·h/mL"}, {"measurement": "AUC(0-t)", "setting": "[1]; 2000 mg, 2000 mg oral, Fasted, Caucasian/Non-Asian, read-out: AUC0-last, GeoMean", "value": 254, "unit": "µg·h/mL"}, {"measurement": "Cmax", "setting": "[1]; 2000 mg, 2000 mg oral, Fasted, Caucasian/Non-Asian, read-out: Cmax, GeoMean", "value": 10300, "unit": "ng/mL"}, {"measurement": "Tmax", "setting": "[1]; 2000 mg, 2000 mg oral, Fasted, Caucasian/Non-Asian, read-out: Tmax, Median", "value": 2.52, "unit": "h"}, {"measurement": "Tmax", "setting": "[1]; 2000 mg, 2000 mg oral, Fasted, Caucasian/Non-Asian, read-out: Tmax, Minimum, Maximum", "value": "1.03 to 5.94", "unit": "h"}, {"measurement": "Vd/F", "setting": "[1]; [3]", "value": 212, "unit": "L"}, {"measurement": "half-life", "setting": "[1]; [3]", "value": 19.9, "unit": "h"}, {"measurement": "AUC(0-t)", "setting": "[1]; 2000 mg, 2000 mg oral, Fasted, Japanese, read-out: AUC0-24, GeoMean", "value": 193, "unit": "µg·h/mL"}, {"measurement": "AUC(0-t)", "setting": "[1]; 2000 mg, 2000 mg oral, Fasted, Japanese, read-out: AUC0-96, GeoMean", "value": 326, "unit": "µg·h/mL"}, {"measurement": "AUC(0-inf)", "setting": "[1]; 2000 mg, 2000 mg oral, Fasted, Japanese, read-out: AUC0-inf, GeoMean", "value": 338, "unit": "µg·h/mL"}, {"measurement": "AUC(0-t)", "setting": "[1]; 2000 mg, 2000 mg oral, Fasted, Japanese, read-out: AUC0-last, GeoMean", "value": 326, "unit": "µg·h/mL"}, {"measurement": "Cmax", "setting": "[1]; 2000 mg, 2000 mg oral, Fasted, Japanese, read-out: Cmax, GeoMean", "value": 14700, "unit": "ng/mL"}, {"measurement": "Tmax", "setting": "[1]; 2000 mg, 2000 mg oral, Fasted, Japanese, read-out: Tmax, Median", "value": 3.94, "unit": "h"}, {"measurement": "Vd/F", "setting": "[1]; [4]", "value": 149, "unit": "L"}, {"measurement": "half-life", "setting": "[1]; [4]", "value": 17.4, "unit": "h"}, {"measurement": "AUC(0-inf)", "setting": "[1]; 2000 mg, 2000 mg oral, Fed (Part 2), read-out: AUC0-inf, Geometric Mean (analysis of variance model)", "value": 465, "unit": "µg·h/mL"}, {"measurement": "AUC(0-t)", "setting": "[1]; 2000 mg, 2000 mg oral, Fed (Part 2), read-out: AUC0-last, Geometric Mean (analysis of variance model)", "value": 449, "unit": "µg·h/mL"}, {"measurement": "Cmax", "setting": "[1]; 2000 mg, 2000 mg oral, Fed (Part 2), read-out: Cmax, Geometric Mean (analysis of variance model)", "value": 19100, "unit": "ng/mL"}, {"measurement": "AUC(0-t)", "setting": "[1]; 2000 mg, 2000 mg oral, Fed, Caucasian/Non-Asian, read-out: AUC0-24, GeoMean", "value": 250, "unit": "µg·h/mL"}, {"measurement": "AUC(0-t)", "setting": "[1]; 2000 mg, 2000 mg oral, Fed, Caucasian/Non-Asian, read-out: AUC0-96, GeoMean", "value": 448, "unit": "µg·h/mL"}, {"measurement": "AUC(0-inf)", "setting": "[1]; 2000 mg, 2000 mg oral, Fed, Caucasian/Non-Asian, read-out: AUC0-inf, GeoMean", "value": 479, "unit": "µg·h/mL"}, {"measurement": "AUC(0-t)", "setting": "[1]; 2000 mg, 2000 mg oral, Fed, Caucasian/Non-Asian, read-out: AUC0-last, GeoMean", "value": 448, "unit": "µg·h/mL"}, {"measurement": "Cmax", "setting": "[1]; 2000 mg, 2000 mg oral, Fed, Caucasian/Non-Asian, read-out: Cmax, GeoMean", "value": 19000, "unit": "ng/mL"}, {"measurement": "Tmax", "setting": "[1]; 2000 mg, 2000 mg oral, Fed, Caucasian/Non-Asian, read-out: Tmax, Median", "value": 4.03, "unit": "h"}, {"measurement": "Tmax", "setting": "[1]; 2000 mg, 2000 mg oral, Fed, Caucasian/Non-Asian, read-out: Tmax, Minimum, Maximum", "value": "2.11 to 8.08", "unit": "h"}, {"measurement": "Vd/F", "setting": "[1]; [5]", "value": 137, "unit": "L"}, {"measurement": "half-life", "setting": "[1]; [5]", "value": 22.7, "unit": "h"}, {"measurement": "plasma concentration-time profile", "setting": "[1]; single oral doses", "value": "reached the maximum peak rapidly and declined roughly in a bi-exponential manner; also recorded: rapidly absorbed"}, {"measurement": "maximum tolerated dose", "setting": "Phase 1 dose escalation", "value": 1500, "unit": "mg BID"}, {"measurement": "daily dose tolerated", "setting": "female, human, in vivo", "value": "≤ 2,500 mg"}, {"measurement": "Diarrhea (TRAE), patients", "setting": "human, in vivo", "value": 5, "unit": "n"}, {"measurement": "Most frequent treatment-related AEs (>15%)", "setting": "human, in vivo", "value": "nausea, vomiting, AST/ALT increase, anemia, blood creatinine increase, and fatigue"}, {"measurement": "Vomiting (TRAE), patients", "setting": "human, in vivo", "value": 5, "unit": "n"}, {"measurement": "daily dose tolerated", "setting": "human, in vivo", "value": "≤ 2,000 mg"}, {"measurement": "tolerance of treatment", "setting": "human, in vivo", "value": "overall good tolerance of treatment with mild nausea and elevated LFTs that resolved with steroids"}, {"measurement": "Dose limiting toxicities", "setting": "human, in vivo, 21 days", "value": "Grade 3 AST/APT increase and grade 3 acute kidney injury"}]}]}
